From PMC6409085, “Three odorant-binding proteins are involved in the behavioral response of Sogatella furcifera to rice plant volatiles” (PeerJ, 2019)
Where “and” joins values, the source holds several entries; their conditions need not be identical. Equal values may be shown once.

What was measured:
S. furcifera adults = experiment: Y-tube olfactometer behavioral trials; assay type: in vivo, Sogatella furcifera; details: odorant 50 µL/L vs hexane
In short: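 Single S. furcifera adults (2 days post-emergence, starved 0.5 h) chose between odorant (100 µL of 50 µL/L on filter paper) and hexane control in a glass Y-tube, charcoal-filtered humidified air 300 mL/min per arm, 25 ± 1 °C, 50% RH. Choice scored if insect passed half an arm and stayed >1 min within 10 min; 45 insects per compound, chi-squared test.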

SfurOBP3 = SfurOBP3 (Sogatella furcifera, UniProt V5T818); experiment: biochemical; assay type: binding; details: for Fluorescence competitive binding assay, fluorescence intensity: OBP3, three replicate columns
Sequence of SfurOBP3 (V5T818 entry or part of it): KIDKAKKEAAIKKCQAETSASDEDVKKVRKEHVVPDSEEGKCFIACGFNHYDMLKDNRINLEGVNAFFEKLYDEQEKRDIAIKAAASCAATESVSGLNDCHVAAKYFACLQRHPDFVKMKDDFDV
In short: (§1)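 Fluorescence competitive binding with 1-NPN as reporter: 2.0 µM protein and 2.0 µM 1-NPN in 50 mM Tris-HCl pH 7.4, odorant added at 2–20 µM final. Excitation 337 nm, emission 390–490 nm read 2 min after addition, triplicates. Ki = IC50/(1 + [1-NPN]/K1-NPN).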

SfurOBP1 = SfurOBP1 (Sogatella furcifera, UniProt V5T8N5); experiment: biochemical; assay type: binding; details: for Fluorescence competitive binding assay, fluorescence intensity: OBP1, three replicate columns
Sequence of SfurOBP1 (V5T8N5 entry or part of it): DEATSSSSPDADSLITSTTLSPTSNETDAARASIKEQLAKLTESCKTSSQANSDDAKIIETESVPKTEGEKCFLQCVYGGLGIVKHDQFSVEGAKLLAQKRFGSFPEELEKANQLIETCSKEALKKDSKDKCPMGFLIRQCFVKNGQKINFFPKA
In short: as §1

SfurOBP2 = SfurOBP2 (Sogatella furcifera, UniProt V5T759); experiment: biochemical; assay type: binding
Sequence of SfurOBP2 (V5T759 entry or part of it): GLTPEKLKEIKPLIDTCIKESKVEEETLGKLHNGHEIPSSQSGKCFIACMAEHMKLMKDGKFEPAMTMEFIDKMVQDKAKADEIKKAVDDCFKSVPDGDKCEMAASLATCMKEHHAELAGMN
In short: as §1

SfurOBP11 = SfurOBP11 (Sogatella furcifera, UniProt V5T6E3); experiment: biochemical; assay type: binding
Sequence of SfurOBP11 (V5T6E3 entry or part of it): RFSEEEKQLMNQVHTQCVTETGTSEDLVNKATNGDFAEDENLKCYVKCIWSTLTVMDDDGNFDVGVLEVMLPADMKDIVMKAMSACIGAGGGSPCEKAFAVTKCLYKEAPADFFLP
In short: as §1

IC50 (SfurOBP3): 12 µM | Fluorescence competitive binding assay, fluorescence intensity (SfurOBP3; ligand concentration 2): 49137 and 48472 and 49801 | Fluorescence competitive binding assay, fluorescence intensity (SfurOBP3; ligand concentration 4): 47017 and 46358 and 43965 | Fluorescence competitive binding assay, fluorescence intensity (SfurOBP3; ligand concentration 6): 39740 and 42626 and 39389 | Fluorescence competitive binding assay, fluorescence intensity (SfurOBP3; ligand concentration 8): 37430 and 36910 and 36009 | Fluorescence competitive binding assay, fluorescence intensity (SfurOBP3; ligand concentration 10): 35904 and 33157 and 32677 | Fluorescence competitive binding assay, fluorescence intensity (SfurOBP3; ligand concentration 12): 30694 and 33051 and 28374 | Fluorescence competitive binding assay, fluorescence intensity (SfurOBP3; ligand concentration 14): 26192 and 26407 and 26489 | Fluorescence competitive binding assay, fluorescence intensity (SfurOBP3; ligand concentration 16): 23097 and 23904 and 24653 | Fluorescence competitive binding assay, fluorescence intensity (SfurOBP3; ligand concentration 18): 23846 and 23655 and 23476 | Fluorescence competitive binding assay, fluorescence intensity (SfurOBP3; ligand concentration 20): 21994 and 24647 and 23321 | binding affinity to SfurOBP3 (in words) (SfurOBP3; SfurOBP3): high binding affinities | IC50 (SfurOBP1): > 20 µM | Fluorescence competitive binding assay, fluorescence intensity (SfurOBP1; ligand concentration 2 (μM)): 7051 and 7963 and 8084 | Fluorescence competitive binding assay, fluorescence intensity (SfurOBP1; ligand concentration 4 (μM)): 8179 and 8456 and 7621 | Fluorescence competitive binding assay, fluorescence intensity (SfurOBP1; ligand concentration 6 (μM)): 7891 and 8214 and 10941 | Fluorescence competitive binding assay, fluorescence intensity (SfurOBP1; ligand concentration 8 (μM)): 7486 and 8333 and 7729 | Fluorescence competitive binding assay, fluorescence intensity (SfurOBP1; ligand concentration 10 (μM)): 7166 and 7631 and 8078 | Fluorescence competitive binding assay, fluorescence intensity (SfurOBP1; ligand concentration 12 (μM)): 13786 and 8045 and 7592 | Fluorescence competitive binding assay, fluorescence intensity (SfurOBP1; ligand concentration 14 (μM)): 7676 and 7139 and 7314 | Fluorescence competitive binding assay, fluorescence intensity (SfurOBP1; ligand concentration 16 (μM)): 6374 and 6355 and 6393 | Fluorescence competitive binding assay, fluorescence intensity (SfurOBP1; ligand concentration 18 (μM)): 6677 and 6433 and 6722 | Fluorescence competitive binding assay, fluorescence intensity (SfurOBP1; ligand concentration 20 (μM)): 6744 and 6442 and 6578 | IC50 (SfurOBP2): 20 µM | Fluorescence competitive binding assay, OBP2 (raw fluorescence reading) (SfurOBP2; ligand concentration 2 (unit not given), replicate column 1 of 3): 20663 | Fluorescence competitive binding assay, OBP2 (raw fluorescence reading) (SfurOBP2; ligand concentration 2 (unit not given), replicate column 2 of 3): 19168 | Fluorescence competitive binding assay, OBP2 (raw fluorescence reading) (SfurOBP2; ligand concentration 2 (unit not given), replicate column 3 of 3): 19828 | Fluorescence competitive binding assay, OBP2 (raw fluorescence reading) (SfurOBP2; ligand concentration 4 (unit not given), replicate column 1 of 3): 20326 | Fluorescence competitive binding assay, OBP2 (raw fluorescence reading) (SfurOBP2; ligand concentration 4 (unit not given), replicate column 2 of 3): 19347 | Fluorescence competitive binding assay, OBP2 (raw fluorescence reading) (SfurOBP2; ligand concentration 4 (unit not given), replicate column 3 of 3): 18863 | Fluorescence competitive binding assay, OBP2 (raw fluorescence reading) (SfurOBP2; ligand concentration 6 (unit not given), replicate column 1 of 3): 19895 | Fluorescence competitive binding assay, OBP2 (raw fluorescence reading) (SfurOBP2; ligand concentration 6 (unit not given), replicate column 2 of 3): 18583 | Fluorescence competitive binding assay, OBP2 (raw fluorescence reading) (SfurOBP2; ligand concentration 6 (unit not given), replicate column 3 of 3): 19617 | Fluorescence competitive binding assay, OBP2 (raw fluorescence reading) (SfurOBP2; ligand concentration 8 (unit not given), replicate column 1 of 3): 17627 | Fluorescence competitive binding assay, OBP2 (raw fluorescence reading) (SfurOBP2; ligand concentration 8 (unit not given), replicate column 2 of 3): 19078 | Fluorescence competitive binding assay, OBP2 (raw fluorescence reading) (SfurOBP2; ligand concentration 8 (unit not given), replicate column 3 of 3): 16731 | Fluorescence competitive binding assay, OBP2 (raw fluorescence reading) (SfurOBP2; ligand concentration 10 (unit not given), replicate column 1 of 3): 16901 | Fluorescence competitive binding assay, OBP2 (raw fluorescence reading) (SfurOBP2; ligand concentration 10 (unit not given), replicate column 2 of 3): 16412 | Fluorescence competitive binding assay, OBP2 (raw fluorescence reading) (SfurOBP2; ligand concentration 10 (unit not given), replicate column 3 of 3): 15901 | Fluorescence competitive binding assay, OBP2 (raw fluorescence reading) (SfurOBP2; ligand concentration 12 (unit not given), replicate column 1 of 3): 15640 | Fluorescence competitive binding assay, OBP2 (raw fluorescence reading) (SfurOBP2; ligand concentration 12 (unit not given), replicate column 2 of 3): 15758 | Fluorescence competitive binding assay, OBP2 (raw fluorescence reading) (SfurOBP2; ligand concentration 12 (unit not given), replicate column 3 of 3): 15363 | Fluorescence competitive binding assay, OBP2 (raw fluorescence reading) (SfurOBP2; ligand concentration 14 (unit not given), replicate column 1 of 3): 13711 | Fluorescence competitive binding assay, OBP2 (raw fluorescence reading) (SfurOBP2; ligand concentration 14 (unit not given), replicate column 2 of 3): 13915 | Fluorescence competitive binding assay, OBP2 (raw fluorescence reading) (SfurOBP2; ligand concentration 14 (unit not given), replicate column 3 of 3): 13962 | Fluorescence competitive binding assay, OBP2 (raw fluorescence reading) (SfurOBP2; ligand concentration 16 (unit not given), replicate column 1 of 3): 12366 | Fluorescence competitive binding assay, OBP2 (raw fluorescence reading) (SfurOBP2; ligand concentration 16 (unit not given), replicate column 2 of 3): 12873 | Fluorescence competitive binding assay, OBP2 (raw fluorescence reading) (SfurOBP2; ligand concentration 16 (unit not given), replicate column 3 of 3): 12910 | Fluorescence competitive binding assay, OBP2 (raw fluorescence reading) (SfurOBP2; ligand concentration 18 (unit not given), replicate column 1 of 3): 12338 | Fluorescence competitive binding assay, OBP2 (raw fluorescence reading) (SfurOBP2; ligand concentration 18 (unit not given), replicate column 2 of 3): 12028 | Fluorescence competitive binding assay, OBP2 (raw fluorescence reading) (SfurOBP2; ligand concentration 18 (unit not given), replicate column 3 of 3): 11737 | Fluorescence competitive binding assay, OBP2 (raw fluorescence reading) (SfurOBP2; ligand concentration 20 (unit not given), replicate column 1 of 3): 11557 | Fluorescence competitive binding assay, OBP2 (raw fluorescence reading) (SfurOBP2; ligand concentration 20 (unit not given), replicate column 2 of 3): 10983 | Fluorescence competitive binding assay, OBP2 (raw fluorescence reading) (SfurOBP2; ligand concentration 20 (unit not given), replicate column 3 of 3): 11423 | IC50 (SfurOBP11): 19.9 µM | Fluorescence intensity, fluorescence competitive binding assay, OBP11 (SfurOBP11; ligand concentration 2, replicate 1): 28050 | Fluorescence intensity, fluorescence competitive binding assay, OBP11 (SfurOBP11; ligand concentration 2, replicate 2): 27736 | Fluorescence intensity, fluorescence competitive binding assay, OBP11 (SfurOBP11; ligand concentration 2, replicate 3): 27612 | Fluorescence intensity, fluorescence competitive binding assay, OBP11 (SfurOBP11; ligand concentration 4, replicate 1): 28634 | Fluorescence intensity, fluorescence competitive binding assay, OBP11 (SfurOBP11; ligand concentration 4, replicate 2): 28801 | Fluorescence intensity, fluorescence competitive binding assay, OBP11 (SfurOBP11; ligand concentration 4, replicate 3): 26168 | Fluorescence intensity, fluorescence competitive binding assay, OBP11 (SfurOBP11; ligand concentration 6, replicate 1): 26910 | Fluorescence intensity, fluorescence competitive binding assay, OBP11 (SfurOBP11; ligand concentration 6, replicate 2): 26403 | Fluorescence intensity, fluorescence competitive binding assay, OBP11 (SfurOBP11; ligand concentration 6, replicate 3): 26657 | Fluorescence intensity, fluorescence competitive binding assay, OBP11 (SfurOBP11; ligand concentration 8, replicate 1): 23184 | Fluorescence intensity, fluorescence competitive binding assay, OBP11 (SfurOBP11; ligand concentration 8, replicate 2): 24499 | Fluorescence intensity, fluorescence competitive binding assay, OBP11 (SfurOBP11; ligand concentration 8, replicate 3): 24103 | Fluorescence intensity, fluorescence competitive binding assay, OBP11 (SfurOBP11; ligand concentration 10, replicate 1): 21871 | Fluorescence intensity, fluorescence competitive binding assay, OBP11 (SfurOBP11; ligand concentration 10, replicate 2): 21831 | Fluorescence intensity, fluorescence competitive binding assay, OBP11 (SfurOBP11; ligand concentration 10, replicate 3): 22447 | Fluorescence intensity, fluorescence competitive binding assay, OBP11 (SfurOBP11; ligand concentration 12, replicate 1): 20048 | Fluorescence intensity, fluorescence competitive binding assay, OBP11 (SfurOBP11; ligand concentration 12, replicate 2): 20727 | Fluorescence intensity, fluorescence competitive binding assay, OBP11 (SfurOBP11; ligand concentration 12, replicate 3): 21593 | Fluorescence intensity, fluorescence competitive binding assay, OBP11 (SfurOBP11; ligand concentration 14, replicate 1): 17047 | Fluorescence intensity, fluorescence competitive binding assay, OBP11 (SfurOBP11; ligand concentration 14, replicate 2): 18839 | Fluorescence intensity, fluorescence competitive binding assay, OBP11 (SfurOBP11; ligand concentration 14, replicate 3): 19615 | Fluorescence intensity, fluorescence competitive binding assay, OBP11 (SfurOBP11; ligand concentration 16, replicate 1): 15254 | Fluorescence intensity, fluorescence competitive binding assay, OBP11 (SfurOBP11; ligand concentration 16, replicate 2): 16765 | Fluorescence intensity, fluorescence competitive binding assay, OBP11 (SfurOBP11; ligand concentration 16, replicate 3): 16613 | Fluorescence intensity, fluorescence competitive binding assay, OBP11 (SfurOBP11; ligand concentration 18, replicate 1): 17103 | Fluorescence intensity, fluorescence competitive binding assay, OBP11 (SfurOBP11; ligand concentration 18, replicate 2): 17364 | Fluorescence intensity, fluorescence competitive binding assay, OBP11 (SfurOBP11; ligand concentration 18, replicate 3): 18167 | Fluorescence intensity, fluorescence competitive binding assay, OBP11 (SfurOBP11; ligand concentration 20, replicate 1): 16580 | Fluorescence intensity, fluorescence competitive binding assay, OBP11 (SfurOBP11; ligand concentration 20, replicate 2): 17841 | Fluorescence intensity, fluorescence competitive binding assay, OBP11 (SfurOBP11; ligand concentration 20, replicate 3): 17555
SMILES: CC(=O)/C=C/C1=C(C)CCCC1(C)C [β-Ionone]
behavioral response of S. furcifera (in words) (S. furcifera adults): strongly attracted | number of insects choosing hexane arm (S. furcifera adults; adults): 18 | number of insects choosing volatilies arm (S. furcifera adults; adults): 10 | number of insects failed (no choice) (S. furcifera adults; adults): 12
